The text below walks through data of patent US8048924B2, “Methods and compositions employing 4-aminophenylacetic acid compounds” (Biocon Limited, priority 2001, dated 2011).

For data set [1], the system named is Clostridium difficile toxin A-induced colitis. The experiment in a line: Toxin A-induced colitis, chronic oral administration in drinking water for 5 days. Format: in vivo, Sprague-Dawley rats. Here is the method: Eighteen adult male Sprague-Dawley rats weighing 175-222 grams were divided into 3 groups each consisting of 6 animals: • 4-APAA (AA-002) 100 mg/kg orally+Toxin A (10 μg) injected into the lumen of the colon • Vehicle (DW) orally+Toxin A (10 μg) injected into the lumen of the colon • Vehicle (DW) orally
Following 5 days of 4-APAA administration in drinking water, both ketamine (67 mg/kg) and xylazine (33 mg/kg) were administered, an isolated colonic segment was surgically created, and 10 μg of Clostridium difficile toxin A was injected into the lumen of the colon. After 3 hours, the rats were euthanized and colonic inflammation was assessed by quantitating luminal fluid accumulation and myeloperoxidase (MPO) content in the colon tissue. In addition, histological evaluation of the treated colon segments was completed.
Drug Administration. In studies using chronic administration, sulfasalazine, APAZA™, and 4-APAA were administered in the drinking water at doses ranging from 0.1-100 mg/kg·d for 5 days. Sulfasalazine and APAZA™ were initially dissolved in 0.1 N NaOH at 30 times the desired final concentration and then the pH was adjusted to 8.5 with 1 N HCl and the solution was diluted 30-fold with distilled water. 4-APAA was dissolved in water. On the fifth day, the rats were fasted overnight (with access to their drinking water±sulfasalazine, APAZA™, or 4-APAA ad lib), anesthetized, and isolated colonic segments were surgically created as described below. In studies using acute administration, the rats were pretreated by injection of 4-APAA at doses of 10 or 100 μg in 200 μl of PBS (pH 7.4) into the lumen of the colonic segment using a 27 ga syringe needle. Toxin A (10 μg) in 200 μl of PBS (pH 7.4) was tested alone or injected into the lumen of the colonic segment 30 minutes after 4-APAA using a 27 ga syringe needle.
Surgery. Isolated colonic segments were created in male Sprague-Dawley rats (150-175 g) as described previously for isolated ileal segments (see, Gastroenterol. 111: 1272-1280 (1996) and Proc. Natl. Acad. Sci. USA 91: 947-951 (1994). Rats fasted overnight with free access to drinking water were anesthetized by intramuscular injection of 67 mg/kg ketamine:33 mg/kg xylazine. A midline abdominal incision was made and colonic segments 5 cm in length were created by ligation with 4-0 silk sutures, taking care not to disturb the vascular supply. Toxin A (10 μg) in 400 μl of PBS (pH 7.4) was injected into the lumen of the colonic segment using a 27 ga syringe needle. Control rats were prepared similarly and their colonic segments were injected with the vehicles. The midline incision was then closed with a running suture, and the rats were placed on a heating pad at 37° C. for 3 hours. After 3 hours, the rats were euthanized and samples of the treated colonic segments were taken for analysis in vitro.
Histopathology. The severity of colonic histological damage was assessed using formalin-fixed, paraffin-embedded, H&E-stained sections.
Luminal Fluid Accumulation. Luminal fluid accumulation was measured gravimetrically. After 3 hours of treatment, the isolated colonic segments were removed, weighed, and their lengths were measured. Luminal fluid accumulation is expressed as mg wet weight per cm length.
Myeloperoxidase Activity. Myeloperoxidase (MPO) activity was measured as described previously (see, J. Invest. Dermatol. 78: 206-209 (1982)). Briefly, pieces of control and treated colonic segments were homogenized in 0.5% hexadecyltrimethylammonium bromide in 50 mM KH2PO4 (pH 6), freeze/thawed three times, centrifuged at 4° C. for 2 minutes, and then the absorbance of each supernatant was read at 460 nm at 0, 30, and 60 seconds after the addition of 2.9 ml of o-dianisidine dihydrochloride to 0.1 ml supernatant. The maximal change in absorbance per minute was used to calculate the units of MPO activity based on the molar absorbency index of oxidized o-dianisidine of 1.13×10^4 M^−1 cm^−1. […]

A short description of data set [2]: Single oral dose plasma pharmacokinetics and elimination of APAZA and metabolites in mice. The settings on record: single oral dose of APAZA, male CD-1 mice. The class given is in vivo, male CD-1 mice. Here is the method:
Initial single dose pharmacokinetic studies with the APAZA™ compound have been conducted in dogs and mice. A study was completed in order to determine the plasma pharmacokinetics and elimination of the APAZA™ compound and its metabolites (5-ASA, 4-APAA, 5-aceASA and 4-aceAPAA) following single oral dose administration to male CD-1 mice. […] When normalized to molar values, the Cmax values for all the APAZA™ metabolites were less than APAZA™; the values ranged from 2.68 to 13.8 μM. However, the normalized APAZA™ AUC∞ value was not greater than all the other metabolites; these values ranged from […]. […] The Tmax values for APAZA™ and its metabolites were 1 hour and 4 hours, respectively.

In another data set the test system is DNBS colitis. The experiment in a line: Study AA-PH-003: oral and rectal APAZA and sulfasalazine in DNBS colitis. On the set-up: Average Diarrhea Score Day 3: scale not given here. The settings on record: for Colonic Inflammation Scores: scale 0-2. Format: in vivo, male Lewis rats. The protocol:
Study AA-PH-003 was designed to evaluate the anti-inflammatory efficacy of oral and rectal doses of APAZATM and sulfasalazine in the DNBS colitis model in rats. […] Thirty-five adult male Lewis rats (body weight 200-250 g) were studied. […] Animal body weights and incidence of diarrhea were recorded daily. […] Animals in the DNBS groups and the parallel deionized water group were sacrificed on day 5. Laparotomies and colectomies were performed and animals were scored for the presence and severity of intestinal adhesions, strictures, inflammation, and ulceration. Colon: body weight ratios were determined and colon histopathology was performed.

The next data set concerns DSS induced colitis. In words: Dextran sulfate sodium (DSS) colitis in the rat. Format: in vivo, Sprague-Dawley rats. The settings on record: oral gavage bid. Here is the method: The effectiveness of APAZA™ and sulfasalazine in ameliorating intestinal inflammation in a model of dextran sulfate sodium (DSS) induced colitis in Sprague-Dawley rats was determined. Thirty-six male Sprague-Dawley rats that were 7-8 weeks old and weighed 240-260 g were studied. […] After completion of the treatment period, rats were euthanized and the efficacy of the test drugs in inhibiting colitis was assessed by the following: • Disease Activity Index Scoring: • Body weight • Colon wet weight: body weight ratios • Colonic Myeloperoxidase (MPO) activity • Histopathological changes of the colon

Where [3] appears, read: 100 mg/kg·day in drinking water, 5 days.
The mark [4] stands for this setting: 100 mg/kg·day in drinking water, 5 days, toxin A 10 μg.
The mark [5] stands for this setting: orally + 30 mg DNBS, APAZA 200 mg/kg, sulfasalazine 265.6 mg/kg.
Setting [6] is: rectally + 30 mg DNBS, APAZA 200 mg/kg, sulfasalazine 265.6 mg/kg.
Where [7] appears, read: 1 mg/kg·day in drinking water, 5 days.
Setting [8] is: 10 mg/kg·day in drinking water, 5 days.

Regarding `O=C(O)Cc1ccc(/N=N/c2ccc(CC(=O)O)cc2)cc1` [4-APAA dimer, [4-(4-Carboxymethyl-phenylazo)-phenyl]-acetic acid], in data set [1] (setting [3]), the “toxin A-induced MPO activity, significance of inhibition” value is listed as “significantly inhibited”; the “toxin A-induced luminal fluid accumulation, significance of inhibition” value was “did not inhibit”; the “toxin A-induced structural damage of the colon (H&E)” value (shortened to “toxin A-induced structural damage”) is given as “did not inhibit”. Besides, in data set [1] (setting [4]), the “percent inhibition of toxin A-induced MPO activity” value came to 60±9% and the “percent inhibition of toxin A-induced luminal fluid accumulation” value stood at 21±8%.
In the case of `CC(=O)Nc1ccc(CC(=O)O)cc1` [4-aceAPAA, (4-acetylamino-phenyl)-acetic acid, reference compound], in data set [2], the “plasma concentration at 24 hours” value is listed as “below the limit of detection”.
As to `CC(=O)Nc1ccc(O)c(C(=O)O)c1` [acetylated 5-ASA], the t1/2 in data set [2] (plasma) stood at 11.27 h. In addition, in data set [2], the “plasma concentration at 24 hours” value is “below the limit of detection”.
For `O=C(O)c1cc(/N=N/c2ccc(S(=O)(=O)Nc3ccccn3)cc2)ccc1O` [sulfasalazine, reference compound], the “reduction relative to control in net colon: body weight (% BW) ratio” value in the data set with DNBS colitis (oral groups) was determined as 38.4%. In the data set with DNBS colitis (setting [5]), the “Average Diarrhea Score Day 3” value is on record as 2.4, the “Colon Histopathology (# severe lesions)” value is reported as 8, the “Length of Colonic Inflammation (cm)” value came out at 2.3 cm and the “Mean Body Weight” value stood at 215.4 g. Further, in the data set on DNBS colitis (setting [5]), the “Mean Colon Length (cm)” value was determined as 12.9 cm, the “Net Colon: Body Weight Ratio” value came to 0.1862 and the “Colonic Inflammation Scores” value came out at 1.4. For the same compound, in the data set with DNBS colitis (setting [6]), the “Average Diarrhea Score Day 3” value is 2, the “Length of Colonic Inflammation (cm)” value is on record as 1.8 cm, the “Mean Body Weight” value was found to be 217.0 g and the “Mean Colon Length (cm)” value is given as 12.8 cm. For the same compound, in the data set on DNBS colitis (setting [6]), the “Net Colon: Body Weight Ratio” value stood at 0.179 and the “Colonic Inflammation Scores” value is 1. Besides, in the data set on DSS induced colitis (days 10 and 11), the “body weights, rats drinking DW versus DSS” value is reported as “statistically significant differences”. Further, in the data set on DSS induced colitis (APAZA 100 mg/kg, sulfasalazine 133 mg/kg), the “colon wet weight: body weight ratio, DSS versus DW” value is listed as “increased”. Moreover, the “Disease Activity Index (DAI) score” value with DSS induced colitis (rats drinking 5% DSS, APAZA 100 mg/kg, sulfasalazine 133 mg/kg) is recorded as “significantly greater”. For the same compound, in the data set on DSS induced colitis (rats receiving DSS), the “colonic MPO activity” value is recorded as “significant increase” and the “histological changes of the colon” value is given as “severe colitis”. Further, in data set [1] (setting [7]), the “toxin A-induced MPO activity, significance of inhibition” value is “did not significantly inhibit”; the “toxin A-induced luminal fluid accumulation, significance of inhibition” value is recorded as “did not significantly inhibit”; the “toxin A-induced structural damage” value is recorded as “little effect”. For the same compound, in data set [1] (setting [8]), the “toxin A-induced luminal fluid accumulation, significance of inhibition” value is “significantly inhibited” and the “toxin A-induced structural damage” value is recorded as “little effect”. Also, in data set [1] (setting [3]), the “toxin A-induced MPO activity, significance of inhibition” value is “significantly inhibited”; the “toxin A-induced luminal fluid accumulation, significance of inhibition” value is “significantly inhibited”; the “toxin A-induced structural damage” value is given as “did inhibit”. Besides, the “doses that significantly inhibited toxin A-induced colitis” value in data set [1] (chronically for 5 days in drinking water, doses tested 1-100) amounted to 100 mg/kg·day.
